Assays:
CDK4 = target: T1, CDK4 (Homo sapiens, UniProt P11802); assay: CDK4 Degradation Assay, Western blotting; type: cell-based; settings: C33A cells, immunoblot
T1 construct: endogenous in cells; host or cells: C33A
Description: (§1) C33A cells were purchased from American Type Culture Collection (ATCC) and were cultured in Dulbecco's Modified Eagle Medium (DMEM) containing 10% (v/v) fetal bovine serum (FBS) and maintained at 37° C. with 5% CO2. 22RV1 cells were purchased from the ATCC and were cultured in RPMI-1640 Medium containing 10% (v/v) FBS and maintained at 37° C. with 5% CO2. HEK293T cells were obtained from the UC Berkeley Cell Culture Facility and were cultured in DMEM containing 10% (v/v) FBS and maintained at 37° C. with 5% CO2. K562 cells were obtained from the UC Berkeley Cell Culture Facility and were cultured in Iscove's Modified Dulbecco's Medium (IMDM) containing 10% (v/v) FBS and maintained at 37° C. with 5% CO2. MV-4-11 cells were obtained from the ATCC and were cultured in IMDM containing 10% (v/v) FBS and maintained at 37° C. with 5% CO2. A549 cells were obtained from the ATCC and were cultured in F-12K Medium containing 10% (v/v) FBS and maintained at 37° C. with 5% CO2. Mino cells were obtained from the ATCC and were cultured in RPMI-1640 Medium containing 10% (v/v) FBS and maintained at 37° C. with 5% CO2. LNCaP cells were obtained from the ATCC and were cultured in RPMI-1640 Medium containing 10% (v/v) FBS and maintained at 37° C. with 5% CO2. Unless otherwise specified, all cell culture materials were purchased from Gibco. It is not known whether HEK293T cells are from male or female origin.
(§2) Cells were washed twice with cold PBS, scraped, and pelleted by centrifugation (700 g, 5 min, 4° C.). Pellets were resuspended in PBS, sonicated, clarified by centrifugation (12,000 g, 10 min, 4° C.), and lysate was transferred to new low-adhesion microcentrifuge tubes. Proteome concentrations were determined using BCA assay and lysate was diluted to appropriate working concentrations.
(§3) Proteins were resolved by SDS/PAGE and transferred to nitrocellulose membranes using the Trans-Blot Turbo transfer system (Bio-Rad). Membranes were blocked with 5% BSA in Tris-buffered saline containing Tween 20 (TBS-T) solution for 30 min at RT, washed in TBS-T, and probed with primary antibody diluted in recommended diluent per manufacturer overnight at 4° C. After 3 washes with TBS-T, the membranes were incubated in the dark with IR680- or IR800-conjugated secondary antibodies at 1:10,000 dilution in 5% BSA in TBS-T at RT for 1 h. After 3 additional washes with TBST, blots were visualized using an Odyssey Li-Cor fluorescent scanner. The membranes were stripped using ReBlot Plus Strong Antibody Stripping Solution (EMD Millipore) when additional primary antibody incubations were performed. Antibodies used in this study were CDK4 (Abcam ab108357), Vinculin (Abcam ab129002), GAPDH (Cell Signaling Technology 14C10), RNF126 (Santa Cruz Biotechnology sc-376005), BRD4 (Abcam ab128874), Beta Actin (Cell Signaling Technology 13E5), PDE5 (Abcam ab259945), AR-V7 (Abcam ab273500), c-Abl (Santa Cruz Biotechnology sc-23), SMARCA2 (Abcam ab240648), LRRK2 (Abcam ab133474), BTK (Cell Signaling Technology D3H5), Androgen Receptor (Abcam ab133273).

pure RNF126 protein = target: T2, pure RNF126 protein (Homo sapiens, UniProt Q9BV68); assay: Mass spectrometry analysis of compound-labeled RNF126 tryptic digests; type: binding
T2 construct: FLAG (C); host or cells: HEK293T

SMARCA2 = target: T3, SMARCA2 (Homo sapiens, UniProt P51531); assay: SMARCA2 Degradation assay, Western blotting; type: cell-based
T3 construct: endogenous in cells; host or cells: MV-4-11
Description: as §1, §2
Proteins were resolved by SDS/PAGE and transferred to nitrocellulose membranes using the Trans-Blot Turbo transfer system (Bio-Rad). […]

Recombinant RNF126 = target: T4, Recombinant RNF126 (Homo sapiens, UniProt Q9BV68); assay: RNF126 Binding Assay, gel-based ABPP
T4 construct: FLAG (C); host or cells: HEK293T
Description: RNF126 mammalian expression plasmid with a C-terminal FLAG tag was purchased from Origene (Origene Technologies Inc., RC204986). The plasmid was transformed into NEB 5-alpha Competent E. coli (DH5) cells (NEB product no. C2987H). The following day, a single transformed colony was used to inoculate 50 ml of nutrient rich LB medium containing kanamycin (50 μg/ml) and was incubated at 37° C. overnight, with agitation (250 rpm). A Miniprep (Qiagen) kit was used to isolate the plasmid before sequence verification with appropriate primers.
HEK293T cells were grown to 30-50% confluency in DMEM supplemented with 10% FBS (Corning) and maintained at 37° C. with 5% CO2. Immediately before transfection, media was replaced with DMEM containing 5% FBS. Each plate was transfected with 24 μg of overexpression plasmid with 24 μL Lipofectamine 3000 (Invitrogen) in Opti-MEM. After 48 h cells were collected in PBS, lysed by sonication, and batch bound with anti-DYKDDDDK resin (GenScript, L00432) for 2 hours. Lysate and resin were washed with PBS and eluted with 133.33 μg/ml 3×FLAG peptide (ApexBio, A6001) in PBS. Five elutions were performed for 15 minutes each. Elutions were concentrated and the protein was stored in PBS. Concentration and purity was determined using the BCA assay and western blotting.
Recombinant RNF126 ([…]) was pre-treated with either DMSO vehicle or covalent ligand at 37° C. for 30 min in 25 μL of PBS, and subsequently treated with of IA-Rhodamine (concentrations designated in figure legends) (Setareh Biotech) at room temperature for 1 h in the dark. The reaction was stopped by addition of 4×reducing Laemmli SDS sample loading buffer (Alfa Aesar). After boiling at 95° C. for 5 min, the samples were separated on precast 4-20% Criterion TGX gels (Bio-Rad). Probe-labeled proteins were analyzed by in-gel fluorescence using a ChemiDoc MP (Bio-Rad).

Androgen Receptor = Androgen Receptor Degradation assay, Western blotting; type: cell-based; settings: for degradation of AR, in words: LNCaP and 22RV1 prostate cancer cells
Description: as §1, §2, §3

AR-V7 = target: T5, AR-V7 (Homo sapiens, UniProt P10275); assay: AR-V7 degradation in prostate cancer cells, Western blotting; type: cell-based; settings: LNCaP and 22RV1 prostate cancer cells
T5 construct: endogenous in cells; host or cells: 22RV1 and/or LNCaP
T5 sequence (P10275 1-644 isoform P10275-3): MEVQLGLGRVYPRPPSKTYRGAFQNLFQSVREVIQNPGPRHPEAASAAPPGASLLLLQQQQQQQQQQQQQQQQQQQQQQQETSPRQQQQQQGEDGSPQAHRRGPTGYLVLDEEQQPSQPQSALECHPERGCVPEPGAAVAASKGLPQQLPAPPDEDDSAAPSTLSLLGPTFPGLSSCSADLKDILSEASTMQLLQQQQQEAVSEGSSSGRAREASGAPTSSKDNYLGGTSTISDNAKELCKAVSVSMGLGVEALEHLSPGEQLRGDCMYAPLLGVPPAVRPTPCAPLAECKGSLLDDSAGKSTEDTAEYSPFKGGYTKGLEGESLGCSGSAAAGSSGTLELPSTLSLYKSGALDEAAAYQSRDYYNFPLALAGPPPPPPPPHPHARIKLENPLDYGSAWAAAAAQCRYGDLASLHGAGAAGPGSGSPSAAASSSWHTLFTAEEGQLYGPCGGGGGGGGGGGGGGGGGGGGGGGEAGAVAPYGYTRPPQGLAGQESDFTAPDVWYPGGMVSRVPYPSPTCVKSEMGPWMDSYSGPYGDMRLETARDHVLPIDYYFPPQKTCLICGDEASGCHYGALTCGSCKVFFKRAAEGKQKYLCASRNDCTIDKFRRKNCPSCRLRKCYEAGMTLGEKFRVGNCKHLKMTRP
Description: as §1, with “LNCaP cells were obtained from the ATCC and were cultured in RPMI-1640 Medium containing 10% (v/v) FBS and maintained at 37° C. with 5% CO2. Unless otherwise specified, all cell culture materials were purchased from Gibco. It is not known whether HEK293T cells are from male or female origin.” left out
Cells were washed twice with cold PBS, scraped, and pelleted by centrifugation (700 g, 5 min, 4° C.). […] Proteome concentrations were determined using BCA assay and lysate was diluted to appropriate working concentrations. […]

T3 sequence (P51531 whole entry): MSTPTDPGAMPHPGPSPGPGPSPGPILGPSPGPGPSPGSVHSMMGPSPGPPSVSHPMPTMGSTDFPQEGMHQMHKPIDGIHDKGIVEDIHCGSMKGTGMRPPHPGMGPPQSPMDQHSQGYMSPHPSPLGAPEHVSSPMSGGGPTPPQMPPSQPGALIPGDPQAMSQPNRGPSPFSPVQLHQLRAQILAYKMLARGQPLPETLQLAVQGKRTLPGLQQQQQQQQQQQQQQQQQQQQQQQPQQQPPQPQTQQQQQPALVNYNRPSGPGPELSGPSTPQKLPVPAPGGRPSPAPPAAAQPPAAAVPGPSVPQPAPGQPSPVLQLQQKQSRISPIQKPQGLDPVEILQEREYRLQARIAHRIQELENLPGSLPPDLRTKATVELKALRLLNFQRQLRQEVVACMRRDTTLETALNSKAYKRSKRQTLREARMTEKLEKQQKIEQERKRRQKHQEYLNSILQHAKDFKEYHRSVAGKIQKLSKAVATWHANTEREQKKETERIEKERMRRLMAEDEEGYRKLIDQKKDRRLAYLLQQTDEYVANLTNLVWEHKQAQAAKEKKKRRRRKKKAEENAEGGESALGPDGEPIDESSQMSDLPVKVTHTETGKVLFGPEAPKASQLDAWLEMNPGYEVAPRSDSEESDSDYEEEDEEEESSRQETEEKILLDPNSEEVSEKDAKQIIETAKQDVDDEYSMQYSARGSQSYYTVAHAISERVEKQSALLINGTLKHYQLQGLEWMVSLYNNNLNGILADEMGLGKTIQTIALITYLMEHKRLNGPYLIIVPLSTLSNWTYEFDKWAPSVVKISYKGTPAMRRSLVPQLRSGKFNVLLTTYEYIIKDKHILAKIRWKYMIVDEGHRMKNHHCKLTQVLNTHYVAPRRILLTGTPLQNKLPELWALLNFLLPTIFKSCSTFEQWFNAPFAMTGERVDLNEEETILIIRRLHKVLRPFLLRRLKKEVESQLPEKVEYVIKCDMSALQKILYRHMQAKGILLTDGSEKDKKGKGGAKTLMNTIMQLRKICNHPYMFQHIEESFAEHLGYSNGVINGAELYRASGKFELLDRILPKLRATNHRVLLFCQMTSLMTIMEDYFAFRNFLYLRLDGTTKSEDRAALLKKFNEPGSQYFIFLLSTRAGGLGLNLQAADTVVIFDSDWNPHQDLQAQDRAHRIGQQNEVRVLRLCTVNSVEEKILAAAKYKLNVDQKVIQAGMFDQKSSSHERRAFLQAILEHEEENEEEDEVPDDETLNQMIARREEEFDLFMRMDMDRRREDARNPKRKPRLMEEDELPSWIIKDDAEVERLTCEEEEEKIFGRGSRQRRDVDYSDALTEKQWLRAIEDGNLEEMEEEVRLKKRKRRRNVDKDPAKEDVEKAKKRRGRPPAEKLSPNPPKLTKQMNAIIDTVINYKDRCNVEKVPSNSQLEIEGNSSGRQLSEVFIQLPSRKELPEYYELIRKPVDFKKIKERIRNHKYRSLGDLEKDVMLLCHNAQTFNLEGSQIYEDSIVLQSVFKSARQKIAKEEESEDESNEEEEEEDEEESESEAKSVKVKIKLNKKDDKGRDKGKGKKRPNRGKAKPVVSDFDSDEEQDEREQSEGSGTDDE
T4 sequence (Q9BV68 whole entry): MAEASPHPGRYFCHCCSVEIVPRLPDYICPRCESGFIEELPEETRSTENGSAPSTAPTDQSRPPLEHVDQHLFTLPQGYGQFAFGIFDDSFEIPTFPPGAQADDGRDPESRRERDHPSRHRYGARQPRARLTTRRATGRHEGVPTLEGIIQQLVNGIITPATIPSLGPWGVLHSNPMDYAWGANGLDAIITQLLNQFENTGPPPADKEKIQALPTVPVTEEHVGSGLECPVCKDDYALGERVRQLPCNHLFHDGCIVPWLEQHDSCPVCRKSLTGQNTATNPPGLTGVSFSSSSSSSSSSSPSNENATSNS
T2 sequence (Q9BV68 whole entry): as above

COc1ccc(C(=O)/C=C/C(=O)N2CCN(c3ccc(Nc4ncc5cc(C(=O)N(C)C)n(C6CCCC6)c5n4)nc3)CC2)cc1 [Compound 113, (E)-7-cyclopentyl-2-((5-(4-(4-(4-methoxyphenyl)-4-oxobut-2-enoyl)piperazin-1-yl)pyridin-2-yl)-amino)-N,N-dimethyl-7H-pyrrolo[2,3-d]pyrimidine-6-carboxamide]
CDK4 degradation, in words (CDK4): in a dose-responsive manner | adduct on RNF126 by mass spectrometry of tryptic digests (pure RNF126 protein): reacts with C32 of RNF126

COc1ccc(C(=O)/C=C/C(=O)N2CCN(c3cc(-c4ccccc4O)nnc3N)CC2)cc1 [Compound 128]
degradation of SMARCA2, in words (SMARCA2; MV-4-11 leukemia cancer cells): degradation of SMARCA2 in MV-4-11 leukemia cancer cells cell in a dose-responsive manner | binding to RNF126 (gel-based ABPP), in words (Recombinant RNF126): potent binding

COc1ccc(C(=O)/C=C/C(=O)N2CCN(C(=O)COc3ccc(-c4csc(N5CCOCC5)n4)cc3)CC2)cc1 [Compound 132]
degradation of AR, in words (Androgen Receptor): degradation of AR and AR-V7 | binding to RNF126 (gel-based ABPP), in words (Recombinant RNF126): potent binding | degradation of AR-V7, in words (AR-V7): degradation of AR and AR-V7

COc1ccc(C(=O)/C=C/C(=O)N2CCN(c3ccc(-c4csc(N5CCOCC5)n4)cc3)CC2)cc1 [Compound 133]
degradation of AR, in words (Androgen Receptor): degradation of AR and AR-V7 | binding to RNF126 (gel-based ABPP), in words (Recombinant RNF126): potent binding | degradation of AR-V7, in words (AR-V7): degradation of AR and AR-V7

COc1ccc(C(=O)/C=C/C(=O)N[C@H]2C[C@H](NC(=O)CN3CCN(c4cc(-c5ccccc5O)nnc4N)CC3)C2)c(F)c1 [Compound 282, (E)-N-((1r,3r)-3-(2-(4-(3-amino-6-(2-hydroxyphenyl)pyridazin-4-yl)piperazin-1-yl)acetamido)cyclobutyl)-4-(2-fluoro-4-methoxyphenyl)-4-oxobut-2-enamide]
DC50 (SMARCA2): > 5 µM

COc1ccc(C(=O)/C=C/C(=O)N[C@H]2C[C@H](NC(=O)CN3CCN(c4cc(-c5ccccc5O)nnc4N)CC3)C2)cc1 [Compound 283, (E)-N-((1r,3r)-3-(2-(4-(3-amino-6-(2-hydroxyphenyl)pyridazin-4-yl)piperazin-1-yl)acetamido)cyclobutyl)-4-(4-methoxyphenyl)-4-oxobut-2-enamide]
DC50 (SMARCA2): > 5 µM

COc1ccc(C(=O)/C=C/C(=O)N[C@H]2C[C@H](NC(=O)CN3CCN(c4ccc(C(=O)N[C@H]5CC[C@H](Oc6ccc(C#N)c(Cl)c6)CC5)nn4)CC3)C2)c(Cl)c1 [Compound 286, N-((1r,4r)-4-(3-chloro-4-cyanophenoxy)cyclohexyl)-6-(4-(2-(((1r,3r)-3-((E)-4-(2-chloro-4-methoxyphenyl)-4-oxobut-2-enamido)cyclobutyl)amino)-2-oxoethyl)piperazin-1-yl)pyridazine-3-carboxamide]
DC50 (Androgen Receptor): > 10 µM

Reference: US20260200939A1, “MOLECULAR GLUE DEGRADER COMPOUNDS AND USES THEREOF” (Novartis AG, priority 2022, published 2026)
